Data: PMC10044445, “Tuning the Anthranilamide Peptidomimetic Design to Selectively Target Planktonic Bacteria and Biofilm” (Antibiotics, 2023)
Values after ≈ are worked out from the molar mass of the structure shown. Where two headings read alike, the source gives them in different places.

What was measured:
[1] = test system: S. aureus; experiment: Minimum inhibitory concentration, broth microdilution (CLSI); type: cell-based, Staphylococcus aureus
Procedure: (§1) The antimicrobial activity of the compounds was evaluated by a broth microdilution assay using the procedure described by CLSI. Briefly, bacteria were grown to mid-log phase in Muller Hinton broth (MHB) with shaking at 120 rpm and incubated at 37 °C for 12–16 h. Following incubation, bacteria were washed three times in PBS pH 7.4 at 3500 g for 10 min. After washing, bacteria were diluted with fresh MHB. The turbidity of the bacterial suspensions was adjusted so that OD660nm was 0.1, which gave 1 × 10^8 CFU/mL, and then further diluted to achieve 5 × 10^5 CFU/mL as a final bacterial concentration. Each compound was diluted (250–3.9 µM) through two-fold dilution. Wells in microtiter plates were loaded with 100 µL of inoculum containing 5 × 10^5 CFU/mL bacteria. Wells without any compound and containing only bacteria were used as negative controls (i.e., no inhibition of growth). Wells with media only were set as blank. The microtiter plate was wrapped with paraffin to prevent evaporation and incubated with shaking at 120 rpm and 37 °C for 18–24 h. After incubation, spectrophotometric readings were taken. The well without any bacterial growth and showing zero spectrophotometric reading was regarded as the MIC of the compounds.

[2] = test system: E. coli; experiment: as above; type: cell-based, Escherichia coli; conditions: for MIC90: broth microdilution in MHB, 18–24 h; for MIC: Table 2, lysine derivative versus parent, read-out: MIC E. coli
Procedure: as §1

[3] = test system: MRC-5 human fibroblasts; experiment: Toxicity assay, Alamar Blue; type: cell-based; conditions: MRC5; MRC-5 human fibroblasts, 72 h drug incubation, Alamar Blue
Procedure: Normal human lung fibroblasts MRC-5 were cultured in minimal essential medium (MEM, Invitrogen) supplemented with 10% foetal calf serum (FCS), 1% L-glutamine–penicillin–streptomycin, 2% sodium bicarbonate, 1% non-essential amino acids (NEAA), and 1% sodium pyruvate. The cell line was maintained at 37 °C in 5% CO2 as an adherent monolayer and was passaged upon reaching confluence by standard cell culture techniques. MRC-5 cells were seeded at 2 × 10^4 cells per well in 96-well plates to ensure full confluence (quiescence). Cells were treated for 24 h after seeding with 0.1 to 1000 μM of compounds. After 72 h of drug incubation, the treated media was replaced with fresh media containing 10% Alamar Blue and the cells were incubated for another 6 h. The metabolic activity was detected by spectrophotometric analysis by assessing the absorbance of Alamar blue as previously described by Pasquier et al. Cell proliferation was determined and expressed as a percentage of untreated control cells. The determination of IC50 values was performed using GraphPad Prism 6 (San Diego, CA, USA). Each experiment was performed in triplicate and was repeated in three independent experiments.

[4] = Staphylococcus aureus, broth microdilution in MHB, 18–24 h
[5] = Staphylococcus aureus, Table 2, lysine derivative versus parent, read-out: MIC S. aureus

NCCNC(=O)[C@H](Cc1c[nH]c2ccccc12)NC(=O)c1cc(Br)ccc1NC(=O)Cc1cccc2ccccc12 [Compound 12b, (S)-N-(1-((2-aminoethyl)amino)-3-(1H-indol-3-yl)-1-oxopropan-2-yl)-5-bromo-2-(2-(naphthalen-1-yl)acetamido)benzamide]
MIC90 [1, 4]: 62.5 µM (≈ 38.3 µg/mL)
MIC ([1]; Staphylococcus aureus, broth microdilution in MHB, 18–24 h, read-out: MIC90 S. aureus): 15.6 µM (≈ 9.56 µg/mL)
MIC90 ([2]; Escherichia coli): > 125 µM

COc1ccc2ccccc2c1C(=O)Nc1ccc(Br)cc1C(=O)N[C@@H](Cc1c[nH]c2ccccc12)C(=O)NCCN [Compound 12c, (S)-N-(2-((1-((2-aminoethyl)amino)-3-(1H-indol-3-yl)-1-oxopropan-2-yl)carbamoyl)-4-bromophenyl)-2-methoxy-1-naphthamide]
MIC90 [1, 4]: 15.6 µM (≈ 9.81 µg/mL)
MIC90 ([2]; Escherichia coli): > 125 µM

COc1cc2ccccc2cc1C(=O)Nc1ccc(Br)cc1C(=O)N[C@@H](Cc1c[nH]c2ccccc12)C(=O)NCCN [Compound 12d, (S)-N-(2-((1-((2-aminoethyl)amino)-3-(1H-indol-3-yl)-1-oxopropan-2-yl)carbamoyl)-4-bromophenyl)-3-methoxy-2-naphthamide]
IC50 [3]: 18.7 µM
MIC90 [1, 4]: 7.8 µM (≈ 4.9 µg/mL)
MIC90 ([2]; Escherichia coli): > 125 µM

NCCNC(=O)[C@H](Cc1c[nH]c2ccccc12)NC(=O)c1cc(Br)ccc1NC(=O)c1ccc2ccccc2n1 [Compound 12e, (S)-N-(2-((1-((2-aminoethyl)amino)-3-(1H-indol-3-yl)-1-oxopropan-2-yl)carbamoyl)-4-bromophenyl)quinoline-2-carboxamide]
MIC90 [1, 4]: 15.6 µM (≈ 9.35 µg/mL)
MIC90 ([2]; Escherichia coli): > 125 µM

NCCNC(=O)[C@H](Cc1c[nH]c2ccccc12)NC(=O)c1cc(Br)ccc1NC(=O)c1cc2ccccc2[nH]1 [Compound 12f, (S)-N-(2-((1-((2-aminoethyl)amino)-3-(1H-indol-3-yl)-1-oxopropan-2-yl)carbamoyl)-4-bromophenyl)-1H-indole-2-carboxamide]
MIC90 [1, 4]: 125 µM (≈ 73.4 µg/mL)
MIC90 ([2]; Escherichia coli): > 125 µM

NCCNC(=O)[C@H](Cc1c[nH]c2ccccc12)NC(=O)c1cc(Br)ccc1NC(=O)c1cccs1 [Compound 12g, (S)-N-(2-((1-((2-aminoethyl)amino)-3-(1H-indol-3-yl)-1-oxopropan-2-yl)carbamoyl)-4-bromophenyl)thiophene-2-carboxamide]
MIC90 [1, 4]: 125 µM (≈ 69.3 µg/mL)
MIC90 ([2]; Escherichia coli): > 125 µM

NCCNC(=O)[C@H](Cc1c[nH]c2ccccc12)NC(=O)c1cc(Br)ccc1NC(=O)c1ccsc1 [Compound 12h, (S)-N-(2-((1-((2-aminoethyl)amino)-3-(1H-indol-3-yl)-1-oxopropan-2-yl)carbamoyl)-4-bromophenyl)thiophene-3-carboxamide]
MIC90 [1, 4]: 125 µM (≈ 69.3 µg/mL)
MIC90 ([2]; Escherichia coli): > 125 µM

NCCNC(=O)[C@H](Cc1c[nH]c2ccccc12)NC(=O)c1cc(Br)ccc1NC(=O)c1ccccc1-c1ccccc1 [Compound 12i, (S)-N-(2-((1-((2-aminoethyl)amino)-3-(1H-indol-3-yl)-1-oxopropan-2-yl)carbamoyl)-4-bromophenyl)-[1,1′-biphenyl]-2-carboxamide]
IC50 [3]: 22.9 µM
MIC90 [1, 4]: 15.6 µM (≈ 9.74 µg/mL)
MIC90 ([2]; Escherichia coli): > 125 µM

NCCNC(=O)[C@H](Cc1c[nH]c2ccccc12)NC(=O)c1cc(Br)ccc1NC(=O)c1cccc(-c2ccccc2)c1 [Compound 12j, (S)-N-(2-((1-((2-aminoethyl)amino)-3-(1H-indol-3-yl)-1-oxopropan-2-yl)carbamoyl)-4-bromophenyl)-[1,1′-biphenyl]-3-carboxamide]
IC50 [3]: 13.5 µM
MIC [1, 5]: 3.9 µM (≈ 2.44 µg/mL)
MIC90 [1, 4]: 3.9 µM (≈ 2.44 µg/mL)
MIC ([2]; Escherichia coli): > 125 µM
MIC90 ([2]; Escherichia coli): > 125 µM
MIC90 [2]: >125 µM

NCCNC(=O)[C@H](Cc1c[nH]c2ccccc12)NC(=O)c1cc(Br)ccc1NC(=O)c1ccc(-c2ccccc2)cc1 [Compound 12k, (S)-N-(2-((1-((2-aminoethyl)amino)-3-(1H-indol-3-yl)-1-oxopropan-2-yl)carbamoyl)-4-bromophenyl)-[1,1′-biphenyl]-4-carboxamide]
IC50 [3]: 12.7 µM
MIC [1, 5]: 7.8 µM (≈ 4.87 µg/mL)
MIC90 [1, 4]: 7.8 µM (≈ 4.87 µg/mL)
MIC ([2]; Escherichia coli): > 125 µM
MIC90 ([2]; Escherichia coli): > 125 µM

NCCCNC(=O)[C@H](Cc1c[nH]c2ccccc12)NC(=O)c1cc(Br)ccc1NC(=O)c1ccc2ccccc2c1 [Compound 13a, (S)-N-(2-((1-((3-aminopropyl)amino)-3-(1H-indol-3-yl)-1-oxopropan-2-yl)carbamoyl)-4-bromophenyl)-2-naphthamide]
MIC90 [1, 4]: 15.6 µM (≈ 9.56 µg/mL)
MIC90 ([2]; Escherichia coli): > 125 µM

NCCCNC(=O)[C@H](Cc1c[nH]c2ccccc12)NC(=O)c1cc(Br)ccc1NC(=O)Cc1cccc2ccccc12 [Compound 13b, (S)-N-(1-((3-aminopropyl)amino)-3-(1H-indol-3-yl)-1-oxopropan-2-yl)-5-bromo-2-(2-(naphthalen-1-yl)acetamido)benzamide]
MIC90 [1, 4]: 62.5 µM (≈ 39.2 µg/mL)
MIC90 ([2]; Escherichia coli): > 125 µM

COc1ccc2ccccc2c1C(=O)Nc1ccc(Br)cc1C(=O)N[C@@H](Cc1c[nH]c2ccccc12)C(=O)NCCCN [Compound 13c, (S)-N-(2-((1-((3-aminopropyl)amino)-3-(1H-indol-3-yl)-1-oxopropan-2-yl)carbamoyl)-4-bromophenyl)-2-methoxy-1-naphthamide]
IC50 [3]: 20.5 µM
MIC90 [1, 4]: 15.6 µM (≈ 10 µg/mL)
MIC90 ([2]; Escherichia coli): 62.5 µM (≈ 40.2 µg/mL)

NCCCNC(=O)[C@H](Cc1c[nH]c2ccccc12)NC(=O)c1cc(Br)ccc1NC(=O)c1ccc2ccccc2n1 [Compound 13e, (S)-N-(2-((1-((3-aminopropyl)amino)-3-(1H-indol-3-yl)-1-oxopropan-2-yl)carbamoyl)-4-bromophenyl)quinoline-2-carboxamide]
MIC90 [1, 4]: > 125 µM
MIC90 ([2]; Escherichia coli): > 125 µM

CC(C)(C)c1ccc(-c2ccc(N)c(C(=O)N[C@@H](Cc3c[nH]c4ccccc34)C(=O)NCCN)c2)cc1 [Compound 16a, (S)-4-amino-N-(1-((2-aminoethyl)amino)-3-(1H-indol-3-yl)-1-oxopropan-2-yl)-4′-(tert-butyl)-[1,1′-biphenyl]-3-carboxamide]
IC50 [3]: 34.1 µM
MIC90 [1, 4]: 7.8 µM (≈ 3.88 µg/mL)
MIC90 ([2]; Escherichia coli): > 125 µM

NCCNC(=O)[C@H](Cc1c[nH]c2ccccc12)NC(=O)c1cc(-c2ccc(F)cc2)ccc1N [Compound 16c, (S)-4-amino-N-(1-((2-aminoethyl)amino)-3-(1H-indol-3-yl)-1-oxopropan-2-yl)-4′-fluoro-[1,1′-biphenyl]-3-carboxamide]
IC50 [3]: 34 µM
MIC90 [1, 4]: 31.2 µM (≈ 14.3 µg/mL)
MIC90 ([2]; Escherichia coli): > 125 µM

NCCNC(=O)[C@H](Cc1c[nH]c2ccccc12)NC(=O)c1cc(-c2ccc(C(F)(F)F)cc2)ccc1N [Compound 16d, (S)-4-amino-N-(1-((2-aminoethyl)amino)-3-(1H-indol-3-yl)-1-oxopropan-2-yl)-4′-(trifluoromethyl)-[1,1′-biphenyl]-3-carboxamide]
MIC90 [1, 4]: 15.6 µM (≈ 7.95 µg/mL)
MIC90 ([2]; Escherichia coli): > 125 µM

NCCNC(=O)[C@H](Cc1c[nH]c2ccccc12)NC(=O)c1cc(Br)ccc1N [Compound 17, (S)-2-amino-N-(1-((2-aminoethyl)amino)-3-(1H-indol-3-yl)-1-oxopropan-2-yl)-5-bromobenzamide]
MIC90 [1, 4]: > 125 µM
MIC90 ([2]; Escherichia coli): > 125 µM

Colistin [reference compound]
MIC90 ([1]; broth microdilution in MHB, 18–24 h): 125 µM
MIC90 [2]: 1 µM
